The source of these data is US20230003721A1, “MITOTHERAPEUTICS FOR THE TREATMENT OF BRAIN DISORDERS” (The University of Florida Research Foundation, Inc., priority 2019, published 2023).

SMILES strings stand for the structures. Where a name gives a salt, the structure may show the parent alone.

In data set [1] the test system is primary neurons. The experiment in a line: TMRM fluorescence assay of inner mitochondrial membrane potential (ΔΨm). The note with it: for TMRM Primary: primary screen, 12.5 μM. As to the method: Mitochondrial dyes. To assay the electrochemical potential across the inner mitochondrial membrane of cultured cells, we used the cell-permeant dye tetramethylrhodamine methyl ester (TMRM). For co-localization studies with Mt-GFP, TMRM was used at 20 nM on DIV14 and incubated for 30 min prior to imaging. For the orthogonal screen of compounds, TMRM was added to primary neurons on DIV13 at 10 nM, one hr prior to pintooling selected compounds, and incubated for 24 hr. Cells were washed 2× with pre-warmed fresh feeding media without B27 before measurements with a plate reader.
(§1) A CLARIOstar (BMG LABTECH) microplate reader was used to measure fluorescence of TMRM and luminescence produced from the ATP.
(§2) Mitochondrial membrane potential (Δψm) and luminescence-based ATP assays. […] Changes of ΔΨm in each well were monitored using the mitochondrial-specific, fluorescent dye TMRM (tetramethyl rhodamine, methyl ester; Molecular Probes) and measured using a CLARIOstar plate reader. […] This concentration was used throughout our experiments. […] Wells in columns 1 and 24 were not loaded with TMRM; these served to measure background signal which was subtracted from the wells to which TMRM was added. To measure the total ATP levels in neurons we utilized the CellTiter-Glo® luminescence-based ATP assay (Promega). DIV13 primary neurons were cultured for 24 h with either DMSO carrier or compound treatment, followed by removing 55 μl culture medium from each well. Plates were maintained at room temperature for 25 m, and 25 μl of CellTiter-Glo® Reagent with the substrate luciferin was then added to each well (Promega). Plates were covered with aluminum foil and shaken vigorously on an orbital shaker for 10 m at 200 rpm and maintained at room temperature for an additional 2 m in dark before being read with the plate reader set to the luminescence mode.
Compound library and hit picking rules. We screened 2400 compounds from the MicroSource Spectrum library. […] FIGS. 13A-13E provide details of the assays used from which hit picking rules were made. In essence, the average fluorescence for each compound in the TMRM assay was determined and compared to the average fluorescence for compounds in the population on each assay plate to produce a Z-score. The Z-scores for each individual compound assayed across the four replicate plates was then averaged.

The subject of data set [2] is primary neurons. In words: CellTiter-Glo luminescence-based ATP assay. Format: cell-based, mouse. Conditions: for ATP: ATP orthogonal screen, 24 h. As for the experimental part: Measurement of ATP production. The total amount of ATP produced by cultured primary neurons was measured by CellTiter-Glo Luminescent Cell Viability Assay (Promega). A recombinant luciferase enzyme catalyzed the mono-oxygenation of luciferin while hydrolyzing ATP produced by the cells and emitting light. We followed the manufacturer's protocol with primary neurons on DIV14.
as §1, §2
Compound library and hit picking rules. We screened 2400 compounds from the MicroSource Spectrum library. […] FIGS. 13A-13E provide details of the assays used from which hit picking rules were made. In essence, the average fluorescence for each compound in the TMRM assay was determined and compared to the average fluorescence for compounds in the population on each assay plate to produce a Z-score. The Z-scores for each individual compound assayed across the four replicate plates was then averaged. Because of significant well location effects (outer rows) on each assay plate (FIG. 13G), we selected primary hits as enhancing well fluorescence above the μplate by 3σplate for inner row wells (rows C-N, columns 3-22), and by 2.5σplate for outer row wells (rows A, B, O, P; columns 3-22) (FIG. 14C-D). […] All orthogonal assays employed inner wells of the 384-well plates.

As for `CC(C)NCC(O)COc1cccc2ccccc12.Cl` (racemic) [propranolol hydrochloride (+/−)], in the data set on primary neurons [1] (24 h), the “TMRM Primary” value amounted to 4.03 Z-scores and the “TMRM Rescreen” value is 3.07 Z-scores. In addition, in the data set on primary neurons [2], the ATP is listed as 5.06 Z-scores.

For `CC1(C)[C@H](O)CC(=O)[C@]2(C)[C@H]3CC[C@@]4(C)[C@H](c5ccoc5)OC(=O)[C@H]5O[C@]54[C@]3(C)C(=O)C[C@@H]12` [1,7-dideacetoxy-1,7-dioxo-3-deacetylkhivorin], in the data set on primary neurons [1] (24 h), the “TMRM Primary” value worked out at 3.65 Z-scores and the “TMRM Rescreen” value was determined as 4.00 Z-scores. In addition, the ATP in the data set with primary neurons [2] is given as 5.46 Z-scores.

Regarding `COc1cc2oc3cc(OC)c(OC)c(CC=C(C)C)c3c(=O)c2c(O)c1CC=C(C)C` [1-hydroxy-3,6,7-trimethoxy-2,8-diprenylxanthone], in the data set on primary neurons [1] (24 h), the “TMRM Primary” value was 3.34 Z-scores and the “TMRM Rescreen” value came to 3.27 Z-scores. Besides, the ATP in the data set on primary neurons [2] worked out at 5.44 Z-scores.

Turning to `COc1ccc(C(=O)/C=C/c2ccccc2)cc1` [4′-methoxychalcone], in the data set on primary neurons [1] (24 h), the “TMRM Primary” value turned out to be 3.42 Z-scores and the “TMRM Rescreen” value was determined as 1.48 Z-scores. In the data set on primary neurons [2], this molecule yielded an ATP of 3.97 Z-scores.

As to `COc1ccc(-c2coc3cc(O)cc(OC)c3c2=O)cc1` [5,4′-dimethoxy-7-hydroxyisoflavone], in the data set on primary neurons [1] (24 h), the “TMRM Primary” value was 5.24 Z-scores and the “TMRM Rescreen” value worked out at 6.90 Z-scores. This molecule returned an ATP with primary neurons [2] of 5.76 Z-scores.

In the case of `CC(C)CCC[C@@H](C)[C@H]1CC[C@H]2[C@@H]3CC(=O)[C@H]4C[C@@H](O)CC[C@]4(C)[C@H]3CC[C@]12C` [5alpha-cholestan-3beta-ol-6-one], in the data set with primary neurons [1] (24 h), the “TMRM Primary” value worked out at 7.10 Z-scores and the “TMRM Rescreen” value is on record as 7.61 Z-scores. In the data set on primary neurons [2], the ATP is listed as 5.86 Z-scores.

Turning to `O=c1[nH]c2ccccc2n1CCCN1CCC(n2c(=O)[nH]c3cc(Cl)ccc32)CC1` [DOMPERIDONE], the Emax in the data set with primary neurons [1] (Mus musculus, Primary neuron, read-out: TMRM (Effect-size)) came to 28.3%. In the data set with primary neurons [1] (24 h), the “TMRM Primary” value is 3.33 Z-scores and the “TMRM Rescreen” value turned out to be 5.58 Z-scores. In the data set on primary neurons [2], this molecule registered an ATP of 5.20 Z-scores. In addition, the Emax with primary neurons [2] (Mus musculus, Primary neuron, maximal percent increase relative to in-plate DMSO controls, dose response, read-out: ATP (Effect-size)) was 13%.

For the molecule `CC(C)(C)OO` [Peroxide, tert-butyl hydroperoxide], the “reduction of whole well TMRM fluorescence” value with primary neurons [1] (50 μM, 24 h, DIV14 neuronal cultures) is on record as roughly 40%.

On to `CCN(CC)CCOC(=O)C(c1ccccc1)c1ccccc1` [adiphenine hydrochloride], for which, in the data set with primary neurons [1] (24 h), the “TMRM Primary” value is 3.05 Z-scores and the “TMRM Rescreen” value was 3.21 Z-scores. The same molecule showed an ATP in the data set on primary neurons [2] of 4.95 Z-scores.

Turning to `CC[C@H]1[C@@H]2C[C@H]3[C@@H]4N(C)c5ccccc5[C@]45C[C@@H]([C@H]2[C@H]5O)N3[C@@H]1O` [ajmaline], in the data set on primary neurons [1] (24 h), the “TMRM Primary” value was 3.76 Z-scores and the “TMRM Rescreen” value is 6.40 Z-scores. The ATP in the data set on primary neurons [2] is 4.76 Z-scores.

Regarding `Nc1c(Br)cc(Br)cc1CN[C@H]1CC[C@H](O)CC1` [ambroxol hydrochloride], in the data set with primary neurons [1] (24 h), the “TMRM Primary” value turned out to be 4.00 Z-scores and the “TMRM Rescreen” value is reported as 5.14 Z-scores. For the same molecule, in the data set on primary neurons [2], the ATP is on record as 5.04 Z-scores.

Regarding `CN(C)CCC=C1c2ccccc2CCc2ccccc21` [amitriptyline hydrochloride], in the data set on primary neurons [1] (24 h), the “TMRM Primary” value is on record as 4.78 Z-scores and the “TMRM Rescreen” value is 1.81 Z-scores. In the data set on primary neurons [2], the ATP amounted to 4.82 Z-scores.

As for `N=c1ccn2c(n1)O[C@H]1[C@H](O)[C@@H](CO)O[C@H]12` [ancitabine hydrochloride], in the data set with primary neurons [1] (24 h), the “TMRM Primary” value worked out at 3.04 Z-scores and the “TMRM Rescreen” value was 1.36 Z-scores. In the data set on primary neurons [2], this molecule gave an ATP of 0.14 Z-scores.

For the molecule `CN1CCC[C@@H]1CCO[C@](C)(c1ccccc1)c1ccc(Cl)cc1` [clemastine fumarate], in the data set on primary neurons [1] (24 h), the “TMRM Primary” value amounted to 2.82 Z-scores and the “TMRM Rescreen” value is on record as 3.22 Z-scores.

Molecule `CNCCC(Oc1ccc(C(F)(F)F)cc1)c1ccccc1` (stereo not drawn) [fluoxetine hydrochloride] yielded an ATP in the data set with primary neurons [2] of 3.70 Z-scores.
